Data as given in ChEMBL document CHEMBL1147992, “Glaziovianin A, a new isoflavone, from the leaves of Ateleia glazioviana and its cytotoxic activity against human cancer cells” (Bioorg Med Chem Lett, 2007).
pIC50: −log10 of the molar value. The source made the active and inactive calls. No cut-off for these calls is given here.

Assays:
HL-60 = experiment: Cytotoxicity against human HL60 cells by MTT assay after 72 hrs; assay type: functional, cell-based; details: HL-60, 72 h
HCC 2998 = experiment: Cytotoxicity against human HCC2998 cells by MTT assay after 72 hrs; assay type: functional; details: HCC 2998, 72 h
[1] = Cytotoxicity against human MKN1 cells by MTT assay after 72 hrs; assay type: functional; details: MKN-1, 72 h
[2] = Cytotoxicity against human BSY1 cells by MTT assay after 72 hrs; assay type: functional; details: BSY-1, 72 h
OVCAR-4 = experiment: Cytotoxicity against human OVCAR4 cells by MTT assay after 72 hrs; assay type: functional; details: OVCAR-4, 72 h
MKN-7 = experiment: Cytotoxicity against human MKN7 cells by MTT assay after 72 hrs; assay type: functional; details: MKN-7, 72 h
PC-3 = experiment: Cytotoxicity against human PC3 cells by MTT assay after 72 hrs; assay type: functional; details: PC-3, 72 h
KM12 = experiment: Cytotoxicity against human KM12 cells by MTT assay after 72 hrs; assay type: functional; details: KM12, 72 h
SK-OV-3 = experiment: Cytotoxicity against human SK-OV3 cells by MTT assay after 72 hrs; assay type: functional; details: SK-OV-3, 72 h
[3] = Cytotoxicity against human […] cells by MTT assay after 72 hrs; assay type: functional
[4] = Cell cycle arrest in rat 3Y1 cells by accumulation at M phase at 3 uM after 18 hrs; assay type: functional, cell-based
SF-295 = experiment: Cytotoxicity against human SF295 cells by MTT assay after 72 hrs; assay type: functional; details: SF-295, 72 h
SF-539 = experiment: Cytotoxicity against human SF539 cells by MTT assay after 72 hrs; assay type: functional; details: SF-539, 72 h
LOX IMVI = experiment: Cytotoxicity against human LOX-IMVI cells by MTT assay after 72 hrs; assay type: functional
MKN-45 = experiment: Cytotoxicity against human MKN45 cells by MTT assay after 72 hrs; assay type: functional; details: MKN-45, 72 h
SF-268 = experiment: Cytotoxicity against human SF268 cells by MTT assay after 72 hrs; assay type: functional; details: SF-268, 72 h
SNB-75 = experiment: Cytotoxicity against human SNB75 cells by MTT assay after 72 hrs; assay type: functional; details: SNB-75, 72 h
MKN-28 = experiment: Cytotoxicity against human MKN28 cells by MTT assay after 72 hrs; assay type: functional; details: MKN-28, 72 h
HCT-15 = experiment: Cytotoxicity against human HCT15 cells by MTT assay after 72 hrs; assay type: functional; details: HCT-15, 72 h
NCI-H460 = experiment: Cytotoxicity against human NCIH460 cells by MTT assay after 72 hrs; assay type: functional; details: NCI-H460, 72 h
MDA-MB-231 = experiment: Cytotoxicity against human MDA-MB-231 cells by MTT assay after 72 hrs; assay type: functional; details: MDA-MB-231, 72 h
DU-145 = experiment: Cytotoxicity against human DU145 cells by MTT assay after 72 hrs; assay type: functional; details: DU-145, 72 h
ACHN = experiment: Cytotoxicity against human ACHN cells by MTT assay after 72 hrs; assay type: functional
U-251 = experiment: Cytotoxicity against human U251 cells by MTT assay after 72 hrs; assay type: functional; details: U-251, 72 h
[5] = Cytotoxicity against human HBC5 cells by MTT assay after 72 hrs; assay type: functional; details: HBC5, 72 h
3Y1 = experiment: Disruption of microtubules in rat 3Y1 cells at 1 uM after 18 hrs; assay type: functional, cell-based
[6] = Cytotoxicity against human HBC4 cells by MTT assay after 72 hrs; assay type: functional; details: HBC4, 72 h
A549 = experiment: Cytotoxicity against human A549 cells by MTT assay after 72 hrs; assay type: functional; details: A549, 72 h
DMS-273 = experiment: Cytotoxicity against human DMS273 cells by MTT assay after 72 hrs; assay type: functional; details: DMS-273, 72 h
NCI-H522 = experiment: Cytotoxicity against human NCIH522 cells by MTT assay after 72 hrs; assay type: functional; details: NCI-H522, 72 h
HCT-116 = experiment: Cytotoxicity against human HCT116 cells by MTT assay after 72 hrs; assay type: functional; details: HCT-116, 72 h
DMS-114 = experiment: Cytotoxicity against human DMS114 cells by MTT assay after 72 hrs; assay type: functional; details: DMS-114, 72 h
[7] = Cytotoxicity against human RXF631L cells by MTT assay after 72 hrs; assay type: functional; details: RXF 631, 72 h
OVCAR-5 = experiment: Cytotoxicity against human OVCAR5 cells by MTT assay after 72 hrs; assay type: functional; details: OVCAR-5, 72 h
HT-29 = experiment: Cytotoxicity against human HT29 cells by MTT assay after 72 hrs; assay type: functional; details: HT-29, 72 h
SNB-78 = experiment: Cytotoxicity against human SNB78 cells by MTT assay after 72 hrs; assay type: functional; details: SNB-78, 72 h
OVCAR-3 = experiment: Cytotoxicity against human OVCAR-3 cells by MTT assay after 72 hrs; assay type: functional; details: OVCAR-3, 72 h
MCF7 = experiment: Cytotoxicity against human MCF7 cells by MTT assay after 72 hrs; assay type: functional; details: MCF7, 72 h
MKN-74 = experiment: Cytotoxicity against human MKN74 cells by MTT assay after 72 hrs; assay type: functional; details: MKN-74, 72 h
NCI-H23 = experiment: Cytotoxicity against human NCIH23 cells by MTT assay after 72 hrs; assay type: functional; details: NCI-H23, 72 h
St-4 = experiment: Cytotoxicity against human St4 cells by MTT assay after 72 hrs; assay type: functional; details: St-4, 72 h
OVCAR-8 = experiment: Cytotoxicity against human OVCAR8 cells by MTT assay after 72 hrs; assay type: functional; details: OVCAR-8, 72 h

Structure (SMILES): COc1cc2occ(-c3cc4c(cc3OC)OCO4)c(=O)c2cc1OC
- pIC50 (HL-60): 4.80

Structure (SMILES): COc1ccc(-c2coc3cc(OC)c(OC)cc3c2=O)cc1OC
- pIC50 (HL-60): 4.64

Structure (SMILES): COc1cc(OC)c(-c2coc3cc(OC)c(OC)cc3c2=O)cc1OC
- pIC50 (HL-60): 5.07

Structure (SMILES): COc1cc2occ(-c3cc(OC)c4c(c3OC)OCO4)c(=O)c2cc1OC [GLAZIOVIANIN A]
- GI50 (HCC 2998): 3020 nM
- GI50 [1]: 690 nM
- GI50 [2]: 50 nM
- GI50 (OVCAR-4): 10500 nM
- GI50 (MKN-7): 1510 nM
- GI50 (PC-3): 100 nM
- GI50 (KM12): 320 nM
- GI50 (SK-OV-3): 280 nM
- GI50 [3]: 580 nM
- Activity [4]: Active
- GI50 (SF-295): 340 nM
- GI50 (SF-539): 320 nM
- GI50 (LOX IMVI): 870 nM
- GI50 (MKN-45): 680 nM
- GI50 (SF-268): 830 nM
- GI50 (SNB-75): 630 nM
- GI50 (MKN-28): 450 nM
- GI50 (HCT-15): 290 nM
- GI50 (NCI-H460): 410 nM
- GI50 (MDA-MB-231): 1100 nM
- GI50 (DU-145): 590 nM
- GI50 (ACHN): 620 nM
- GI50 (U-251): 790 nM
- GI50 [5]: 470 nM
- Activity (3Y1): Active
- GI50 [6]: 1950 nM
- GI50 (A549): 830 nM
- GI50 (DMS-273): 130 nM
- GI50 (NCI-H522): 230 nM
- GI50 (HCT-116): 560 nM
- GI50 (DMS-114): 200 nM
- GI50 [7]: 510 nM
- GI50 (OVCAR-5): 2190 nM
- GI50 (HT-29): 460 nM
- pIC50 (HL-60): 6.54
- GI50 (SNB-78): 10700 nM
- GI50 (OVCAR-3): 130 nM
- GI50 (MCF7): 390 nM
- GI50 (MKN-74): 390 nM
- GI50 (NCI-H23): 5130 nM
- GI50 (St-4): 15100 nM
- GI50 (OVCAR-8): 1510 nM
